Results as given in patent US10272086B2 (CHANG GUNG MEMORIAL HOSPITAL, LINKOU, priority 2013, dated 2019).

How the values were obtained:
[1] = biological target: T1, glucocorticoid receptor (GR) (Homo sapiens, UniProt P04150); assay: Glucocorticoid receptor transcriptional activity reporter assay in PC-3 cells (control study); assay type: cell-based
T1 construct: host or cells: PC-3
T1 sequence (P04150 1-777): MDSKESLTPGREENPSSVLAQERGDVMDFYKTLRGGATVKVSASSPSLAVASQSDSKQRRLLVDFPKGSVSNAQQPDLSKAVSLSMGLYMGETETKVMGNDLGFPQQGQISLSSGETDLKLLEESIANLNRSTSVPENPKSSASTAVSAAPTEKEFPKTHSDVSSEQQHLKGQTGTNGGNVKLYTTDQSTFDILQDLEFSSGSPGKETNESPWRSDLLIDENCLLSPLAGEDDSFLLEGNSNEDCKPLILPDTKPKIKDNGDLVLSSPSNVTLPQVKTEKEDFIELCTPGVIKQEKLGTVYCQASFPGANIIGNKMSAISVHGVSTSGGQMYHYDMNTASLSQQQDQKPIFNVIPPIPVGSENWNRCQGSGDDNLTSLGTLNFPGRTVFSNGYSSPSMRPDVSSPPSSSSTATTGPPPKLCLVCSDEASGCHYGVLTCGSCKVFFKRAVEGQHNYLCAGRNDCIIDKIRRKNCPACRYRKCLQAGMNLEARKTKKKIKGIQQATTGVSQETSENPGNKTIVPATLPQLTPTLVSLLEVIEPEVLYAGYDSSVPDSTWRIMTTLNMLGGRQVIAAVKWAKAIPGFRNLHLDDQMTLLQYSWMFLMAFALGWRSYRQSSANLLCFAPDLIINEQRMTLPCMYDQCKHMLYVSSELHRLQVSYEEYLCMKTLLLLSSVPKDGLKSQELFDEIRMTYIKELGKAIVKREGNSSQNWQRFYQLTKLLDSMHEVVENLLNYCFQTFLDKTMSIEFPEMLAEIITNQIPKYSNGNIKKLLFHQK

[2] = Topical 5% Minoxidil on an acne on a patient's face, two applications; assay type: in vivo, human
[3] = Topical Minoxidil on forehead acne in a patient, 7-day course; assay type: in vivo, human
Protocol: An in vivo evaluation of topical Minoxidil on acne was carried out in a patient. […] In addition, there was less new […] formation on the left (treated) forehead compared to the right (untreated) forehead.

[4] = Double-blind clinical trial of topical Minoxidil versus placebo in patients with acne; assay type: in vivo, human
Protocol: A double-blind clinical trial is conducted, in which topical Minoxidil and placebo are administered to patients with acne.

[5] = tested on: PSA (prostate specific antigen) protein expression; assay: Western blot of AR regulated PSA protein expression in LNCaP cells; assay type: cell-based, human; details: 10^−3˜10^−5 M Minoxidil, 24 h
Protocol: The cells were prepared for electrophoresis on SDS/PAGE gel and then transferred onto nitrocellulose (Minipore, Billerica, USA). AR, PSA and beta-actin proteins were identified using anti-AR (N-20 from Santa Cruz Biotechnology, Santa Cruz, USA), anti-PSA (C-19 from Santa Cruz Biotechnology, Santa Cruz, USA), or […] (MAB1501 from Millipore, Billerica, USA) respectively. Images were shown using alkaline phosphatase substrate color kit (Bio-Rad, Hercules, USA).

GR transcriptional activity ([1]; highest concentration 100 μM): did affect GR transcriptional activity | GR transcriptional activity ([1]; lower concentrations 1-10 μM): did not
SMILES: Nc1cc(N2CCCCC2)nc(N)[n+]1[O-] [Minoxidil, 6-piperidin-1-ylpyrimidine-2,4-diamine 3-oxide]
Erythema and swelling around the acne ([2]; 5% Minoxidil, topical, after two applications): significant reduction in erythema and swelling around the acne | Efficacy in treating acne ([2]; 5% topical Minoxidil, 48-hour period): effective in treating acne | New pimple formation, treated versus untreated forehead ([3]; 5% Minoxidil solution, topical, once a day for 7 days): less new pimple formation on the left (treated) forehead | Pimples on treated forehead ([3]; 5% Minoxidil solution, topical, once a day for 7 days, left forehead treated, right forehead control): disappearance of pimples on the left (treated) forehead | Healing time of acne ([3]; 5% topical Minoxidil, 7-day course): faster healing time | Symptoms and signs of acne in comparison with the placebo group [4]: statistically significant reduction in the symptoms and signs of acne | AR regulated PSA protein expression [5]: effective in inhibiting AR regulated PSA protein expression in the presence of DHT, in a dose dependent manner
